Holding throughout (assay type): functional, cell-based
Assay [1] concerns HT-29. The assay can be described thus: Inhibitory activity against HT-29 human colon carcinoma cells containing P1-1 GST for treatment time of 60 min. Particulars: HT-29, 1 h.
The subject of assay [2] is MCF7. The assay can be described thus: Inhibitory activity against MCF-7 neo cells […] for treatment time of 120 min. As to conditions: Homo sapiens, MCF7, 2 h.
The subject of assay [3] is HT-29. The assay can be described thus: Inhibitory activity against HT-29 human colon carcinoma cells containing P1-1 GST for treatment time of 120 min. As to conditions: HT-29, 2 h.
Assay [4] concerns MCF7. The assay can be described thus: Inhibitory activity against MCF-7 pi cells containing P1-1 GST for treatment time of 120 min. Particulars: Homo sapiens, MCF7, 2 h.

pIC50: −log10 of the molar value.

The pIC50 is −log10 of the IC50, conventionally taken in molar units. High values mean a low IC50, low ones a high IC50.

On to `NC(CCC(=O)NC(CS(=O)(=O)CCOP(=O)(N(CCCl)CCCl)N(CCCl)CCCl)C(=O)NCC(=O)O)C(=O)O` (stereo not drawn), for which the pIC50 in assay [1] is 4.07; in assay [2], 4.40; in assay [3], 4.16; in assay [4], 4.68.

For the compound `NC(CCC(=O)NC(CS(=O)(=O)CCOP(=O)(N(CCCl)CCCl)N(CCCl)CCCl)C(=O)NC(C(=O)O)c1ccccc1)C(=O)O` (stereo not drawn), the negative-log IC50 (pIC50) is 3.77 in assay [1], 4.43 in assay [2], 4.10 in assay [3] and 5.02 in assay [4].

(Values after ChEMBL document CHEMBL1127513, “Glutathione-S-transferase activates novel alkylating agents” (J Med Chem, 1994).)
